The source of these data is publication PMC10858940, “Repositioning baloxavir marboxil as VISTA agonist that ameliorates experimental asthma” (Cell Biology and Toxicology, 2024).

As usually defined, the pKd is −log10 of the Kd, conventionally taken in molar units.

The target in test [1] is T1, VISTA (V-type immunoglobulin domain–containing suppressor of T-cell activation) (Homo sapiens, UniProt Q9H7M9).
T1 construct: gene VSIR; human VISTA protein
T1 sequence (Q9H7M9 33-194 limits assumed): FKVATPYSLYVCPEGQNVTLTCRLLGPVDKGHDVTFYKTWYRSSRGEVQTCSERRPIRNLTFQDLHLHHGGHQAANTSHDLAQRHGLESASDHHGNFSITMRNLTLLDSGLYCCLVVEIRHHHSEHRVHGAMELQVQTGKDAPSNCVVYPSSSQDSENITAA
Description: SPR (Biacore T200, human VISTA immobilized on CM5 chip). Format: binding. In general terms: Surface plasmon resonance follows binding to a sensor surface in real time, without labels.

For test [2], the target named is T2, VISTA (V-type immunoglobulin domain–containing suppressor of T-cell activation) (Homo sapiens, UniProt Q9H7M9).
T2 construct: gene VSIR; human VISTA-ECD protein
T2 sequence (Q9H7M9 33-194): T1 sequence (Q9H7M9 33-194 limits assumed)
The description is as above. Format: binding.

pKd: −log10 of the molar value. Where two headings read alike, the source gives them in different places.

`COC(=O)OCOc1c2n(ccc1=O)N([C@@H]1c3ccccc3SCc3c1ccc(F)c3F)[C@@H]1COCCN1C2=O` [BXM, baloxavir marboxil] gave a pKd in test [1] of 5.97. In test [2], `O=C1c2c(O)c(=O)ccn2N([C@@H]2c3ccccc3SCc3c2ccc(F)c3F)[C@@H]2COCCN12` [BXA, baloxavir acid] had a pKd of 6.68.
